Test results as given in ChEMBL document CHEMBL2346568, “Discovery and structure-activity relationship of thienopyridine derivatives as bone anabolic agents” (Bioorg Med Chem, 2013).
Calls of active or inactive are those of the source. No cut-off for these calls is given here.

Columns and labels:
[1] = Induction of osteoblastic differentiation in mouse ST2 cells assessed as increase in alkaline phosphatase activity after 4 days by lowry method; type: functional
[2] = in vitro; settings: rat, liver microsomes
[3] = Induction of osteoblastic differentiation in mouse ST2 cells assessed as increase in alkaline phosphatase activity at 0.30 ug/ml after 4 days by lowry method; type: functional
[4] = test system: Rattus norvegicus; experiment: Bone anabolic effect in ovariectomized F344 rat postmenopausal osteoporosis model assessed as increase in serum osteocalcin level at 60 mg/kg, po bid for 6 weeks by ELISA; type: functional, organism-based; design: dose 60 mg/kg
[5] = AUC in F344 rat at 2 mg/kg, iv; type: ADME, organism-based; design: dose 2 mg/kg, route intravenous; settings: plasma
[6] = test system: Rattus norvegicus; experiment: Bone anabolic effect in ovariectomized F344 rat postmenopausal osteoporosis model assessed as increase in areal bone mineral density of distal femur at 60 mg/kg, po bid for 6 weeks by dual energy X-ray absorptiometry; type: functional, organism-based; design: dose 60 mg/kg
[7] = Oral bioavailability in F344 rat at 25 mg/kg; type: ADME, organism-based; settings: in vivo
[8] = test system: Rattus norvegicus; experiment: Bone anabolic effect in ovariectomized F344 rat postmenopausal osteoporosis model assessed as increase in areal bone mineral density of femoral diaphyses at 60 mg/kg, po bid for 6 weeks by dual energy X-ray absorptiometry; type: functional, organism-based; design: dose 60 mg/kg
[9] = Volume of distribution in F344 rat at 2 mg/kg, iv; type: ADME, organism-based; design: dose 2 mg/kg, route intravenous; settings: in vivo
[10] = test system: Rattus norvegicus; experiment: Bone anabolic effect in ovariectomized F344 rat postmenopausal osteoporosis model assessed as increase in areal bone mineral density of proximal tibiae at 60 mg/kg, po bid for 6 weeks by dual energy X-ray absorptiometry; type: functional, organism-based; design: dose 60 mg/kg
[11] = AUC in F344 rat at 25 mg/kg, po; type: ADME, organism-based; design: dose 25 mg/kg, route oral; settings: plasma
[12] = Cmax in F344 rat at 25 mg/kg, po; type: ADME, organism-based; design: dose 25 mg/kg, route oral; settings: in vivo
[13] = test system: Rattus norvegicus; experiment: Volume of distribution in F344 rat at 25 mg/kg, po; type: ADME, organism-based; design: dose 25 mg/kg, route oral; settings: in vivo
[14] = Clearance in F344 rat at 2 mg/kg, iv; settings: in vivo
[15] = test system: Rattus norvegicus; experiment: Bone anabolic effect in ovariectomized F344 rat postmenopausal osteoporosis model assessed as increase in areal bone mineral density of proximal tibiae at 10 to 30 mg/kg, po qd for 6 weeks by dual energy X-ray absorptiometry; type: functional, organism-based
[16] = test system: Rattus norvegicus; experiment: Bone anabolic effect in ovariectomized F344 rat postmenopausal osteoporosis model assessed as increase in serum osteocalcin level at 10 to 30 mg/kg, po qd for 6 weeks by ELISA; type: functional, organism-based
[17] = test system: Rattus norvegicus; experiment: Bone anabolic effect in ovariectomized F344 rat postmenopausal osteoporosis model assessed as increase in areal bone mineral density of distal femur at 10 to 30 mg/kg, po qd for 6 weeks by dual energy X-ray absorptiometry; type: functional, organism-based
[18] = Half life in F344 rat at 25 mg/kg, po; settings: in vivo
[19] = test system: Rattus norvegicus; experiment: Bone anabolic effect in ovariectomized F344 rat postmenopausal osteoporosis model assessed as increase in areal bone mineral density of femoral diaphyses at 10 to 30 mg/kg, po qd for 6 weeks by dual energy X-ray absorptiometry; type: functional, organism-based
[20] = Clearance in F344 rat at 25 mg/kg, po; settings: in vivo
[21] = Half life in F344 rat at 2 mg/kg, iv; settings: in vivo

NC(=O)c1sc2nccc(N3CCCN(c4nccs4)CC3)c2c1N
EC200 [1]: 0.036 µg/mL

NC(=O)c1sc2nccc(N3CCCN(c4ccncc4)CC3)c2c1N
EC200 [1]: 0.091 µg/mL

NC(=O)c1sc2nccc(N3CCCN(c4ccc(F)cc4)CC3)c2c1N
EC200 [1]: 0.082 µg/mL

CN(C)C(=O)c1ccc(N2CCCN(c3ccnc4sc(C(N)=O)c(N)c34)CC2)cc1
EC200 [1]: 0.014 µg/mL

NC(=O)c1sc2nccc(N3CCCCC3)c2c1N
remaining at 0.5 h [2]: 2%
EC200 [1]: 0.067 µg/mL

CCOC(=O)c1ccc(N2CCCN(c3ccnc4sc(C(N)=O)c(N)c34)CC2)cc1
EC200 [1]: 0.193 µg/mL

CCCNc1ccnc2sc(C(N)=O)c(N)c12
Activity [3]: 134%

COc1ccc(N2CCCN(c3ccnc4sc(C(N)=O)c(N)c34)CC2)cc1
EC200 [1]: 0.035 µg/mL

NC(=O)c1sc2nccc(N3CCNCC3)c2c1N
Activity [3]: 105%

NC(=O)c1ccc(N2CCCN(c3ccnc4sc(C(N)=O)c(N)c34)CC2)cc1
EC200 [1]: 0.079 µg/mL

Cc1ccc(N2CCCN(c3ccnc4sc(C(N)=O)c(N)c34)CC2)cc1
EC200 [1]: 0.044 µg/mL

Cc1cccc(N2CCCN(c3ccnc4sc(C(N)=O)c(N)c34)CC2)c1
EC200 [1]: 0.074 µg/mL

NC(=O)c1sc2nccc(NC3CCCCC3)c2c1N
EC200 [1]: 0.24 µg/mL

CN(C)c1ccnc2sc(C(N)=O)c(N)c12
Activity [4]: Active
AUC [5]: 870 ng·h/mL
Activity [6]: Active
bioavailability [7]: 87%
Activity [8]: Active
Vd [9]: 1.1 L/kg
Activity [10]: Active
AUC [11]: 9400 ng·h/mL
EC200 [1]: 0.17 µg/mL
Cmax [12]: 5590 ng/mL
Vd [13]: 3.1 L/kg

CNC(=O)c1ccc(N2CCCN(c3ccnc4sc(C(N)=O)c(N)c34)CC2)cc1
EC200 [1]: 0.023 µg/mL

N#Cc1ccc(N2CCCN(c3ccnc4sc(C(N)=O)c(N)c34)CC2)cc1
EC200 [1]: 0.099 µg/mL

Cc1ccccc1N1CCCN(c2ccnc3sc(C(N)=O)c(N)c23)CC1
EC200 [1]: >1 µg/mL

NC(=O)c1sc2nccc(N3CCN(c4ccccc4)CC3)c2c1N
remaining at 0.5 h [2]: 91%
EC200 [1]: 0.1 µg/mL

NC(=O)c1sc2nccc(N3CCOCC3)c2c1N
remaining at 0.5 h [2]: 82%
EC200 [1]: 0.44 µg/mL

NC(=O)c1sc2nccc(N3CCCN(c4ccc(C(=O)O)cc4)CC3)c2c1N
EC200 [1]: >1 µg/mL

CC(C)(C)c1ccc(N2CCCN(c3ccnc4sc(C(N)=O)c(N)c34)CC2)cc1
EC200 [1]: 0.27 µg/mL

CCCN(CCC)c1ccnc2sc(C(N)=O)c(N)c12
Activity [3]: 110%

NC(=O)c1sc2nccc(N3CCCC3)c2c1N
EC200 [1]: 0.29 µg/mL

CN(C)C(=O)Cc1ccc(N2CCCN(c3ccnc4sc(C(N)=O)c(N)c34)CC2)cc1
EC200 [1]: 0.003 µg/mL

NC(=O)c1sc2nccc(N3CCCN(c4ccccc4)CC3)c2c1N
clearance [14]: 29 mL/min/kg
AUC [5]: 1100 ng·h/mL
Activity [15]: Active
bioavailability [7]: 71%
Activity [16]: Active
Activity [17]: Active
half-life [18]: 3.22 h
Activity [19]: Active
remaining at 0.5 h [2]: 71%
Vd [9]: 4.2 L/kg
CL/F [20]: 34 mL/min/kg
half-life [21]: 2.77 h
AUC [11]: 9500 ng·h/mL
EC200 [1]: 0.051 µg/mL
Cmax [12]: 2540 ng/mL
Vd [13]: 8.1 L/kg

NC(=O)c1sc2nccc(N3CCCN(c4ccccn4)CC3)c2c1N
EC200 [1]: 0.059 µg/mL

CC(C)Oc1ccc(N2CCCN(c3ccnc4sc(C(N)=O)c(N)c34)CC2)cc1
EC200 [1]: >1 µg/mL

CN1CCN(c2ccnc3sc(C(N)=O)c(N)c23)CC1
Activity [3]: 117%
